Experimental data taken from ChEMBL document CHEMBL1649507, “CMY-29 and CMY-30, two novel plasmid-mediated AmpC beta-lactamases” (2009).
Converted amounts (≈) assume the structure as drawn.

Legend:
Type in all cases: functional
Escherichia coli [1] = experiment: Antibacterial activity against Escherichia coli isolate ARL04-413 harboring beta-lactamase CMY 2 by broth microdilution method
Escherichia coli [2] = experiment: Antibacterial activity against Escherichia coli isolate ARL05-909 harboring beta-lactamase CMY 29 by broth microdilution method
Escherichia coli [3] = experiment: Antibacterial activity against Escherichia coli isolate ARL05-705 harboring beta-lactamase CMY 7 by broth microdilution method
Escherichia coli [4] = experiment: Antibacterial activity against Escherichia coli isolate ARL06-39 harboring beta-lactamase CMY 30 by broth microdilution method

Compound	MIC (Escherichia coli [1]) [µg/mL]	MIC (Escherichia coli [2]) [µg/mL]	MIC (Escherichia coli [3]) [µg/mL]	MIC (Escherichia coli [4]) [µg/mL]
CC(C)(O/N=C(\C(=O)N[C@@H]1C(=O)N2C(C(=O)[O-])=C(C[n+]3ccccc3)CS[C@H]12)c1csc(N)n1)C(=O)O [CEFTAZIDIME]	64 (≈ 117 µM)	≥ 128	64 (≈ 117 µM)	32 (≈ 58.5 µM)
CO/N=C(\C(=O)N[C@@H]1C(=O)N2C(C(=O)[O-])=C(C[N+]3(C)CCCC3)CS[C@H]12)c1csc(N)n1 [CEFEPIME]	0.25 (≈ 0.52 µM)	1 (≈ 2.08 µM)	0.25 (≈ 0.52 µM)	0.5 (≈ 1.04 µM)
C[C@@H](O)[C@H]1C(=O)N2C(C(=O)O)=C(SCCNC=N)C[C@H]12 [IMIPENEM ANHYDROUS]	0.25 (≈ 0.835 µM)	0.5 (≈ 1.67 µM)	0.5 (≈ 1.67 µM)	0.5 (≈ 1.67 µM)
C[C@@H](O)[C@H]1C(=O)N2C(C(=O)O)=C(S[C@@H]3CN[C@H](C(=O)N(C)C)C3)[C@H](C)[C@H]12 [MEROPENEM]	≤ 0.12	≤ 0.12	≤ 0.12	≤ 0.12
CO/N=C(\C(=O)N[C@@H]1C(=O)N2C(C(=O)O)=C(CSc3nc(=O)c(O)nn3C)CS[C@H]12)c1csc(N)n1 [CEFTRIAXONE]	32 (≈ 57.7 µM)	128 (≈ 231 µM)	32 (≈ 57.7 µM)	32 (≈ 57.7 µM)
CO[C@@]1(NC(=O)Cc2cccs2)C(=O)N2C(C(=O)O)=C(COC(N)=O)CS[C@@H]21 [CEFOXITIN]	≥ 256	≥ 256	64 (≈ 150 µM)	128 (≈ 299 µM)
